Where two headings read alike, the source gives them in different places.
Legend:
[1] = tested on: PBMCs; assay: LPS-induced TNFα/IL-8 release in PBMC cells; assay type: cell-based; details: Homo sapiens, LPS-stimulated PBMCs
Procedure: Peripheral blood mononuclear cells (PBMCs) from healthy subjects are separated from whole blood using a density gradient (Lymphoprep, Axis-Shield Healthcare). The PBMCs are seeded in 96 well plates and treated with compounds at the desired concentration for 2 hours before addition of 1 ng/mL LPS (Escherichia Coli 0111:B4 from Sigma Aldrich) for 24 hours under normal tissue culture conditions (37° C., 5% CO2). The supernatant is harvested for determination of IL-8 and TNFα concentrations by sandwich ELISA (Duo-set, R&D systems) and read on the fluorescence microplate reader (Varioskan® Flash, ThermoFisher Scientific). The concentration at 50% inhibition (IC50) of IL-8 and TNFα production is calculated from the dose response curve.

[2] = target: GSK3α (Homo sapiens (Human), UniProt P49840); assay: GSK 3α enzyme inhibition (FRET, Z-LYTE; Method 2); assay type: biochemical
Procedure: The enzyme inhibitory activities of compounds disclosed herein are determined by FRET using synthetic peptides labelled with both donor and acceptor fluorophores (Z-LYTE, Invitrogen Ltd., Paisley, UK).
The inhibitory activities of compounds of the invention against the GSK 3α enzyme isoform (Invitrogen), are evaluated by determining the level of activation/phosphorylation of the target peptide. The GSK3-α protein (500 ng/mL, 2.5 μL) is mixed with the test compound (2.5 μL at either 4 μg/mL, 0.4 μg/mL, 0.04 μg/mL, or 0.004 μg/mL) for 2 hr at RT. The FRET peptide (8 μM, 2.5 μL), which is a phosphorylation target for GSK3α, and ATP (40 μM, 2.5 μL) are then added to the enzyme/compound mixture and the resulting mixture incubated for 1 hr. Development reagent (protease, 5 μL) is added for 1 hr prior to detection in a fluorescence microplate reader (Varioskan® Flash, ThermoFisher Scientific).
In all cases, the site-specific protease cleaves non-phosphorylated peptide only and eliminates the FRET signal. Phosphorylation levels of each reaction are calculated using the ratio of coumarin emission (donor) over fluorescein emission (acceptor), for which high ratios indicate high phosphorylation and low ratios indicate low phosphorylation levels. The percentage inhibition of each reaction is calculated relative to non-inhibited control and the 50% inhibitory concentration (IC50 value) is then calculated from the concentration-response curve.
This method follows the same steps as Method 1 above, but utilises a shorter period of mixing of the test compound (105 minutes instead of 2 hours) with the GSK3-α protein.

[3] = IL-8, read-out: IC50 Values for Inhibition of Cytokine Release, PBMCs IL-8
[4] = TNFα, read-out: IC50 Values for Inhibition of Cytokine Release, PBMCs TNFα

Chain of GSK3α (P49840 whole entry): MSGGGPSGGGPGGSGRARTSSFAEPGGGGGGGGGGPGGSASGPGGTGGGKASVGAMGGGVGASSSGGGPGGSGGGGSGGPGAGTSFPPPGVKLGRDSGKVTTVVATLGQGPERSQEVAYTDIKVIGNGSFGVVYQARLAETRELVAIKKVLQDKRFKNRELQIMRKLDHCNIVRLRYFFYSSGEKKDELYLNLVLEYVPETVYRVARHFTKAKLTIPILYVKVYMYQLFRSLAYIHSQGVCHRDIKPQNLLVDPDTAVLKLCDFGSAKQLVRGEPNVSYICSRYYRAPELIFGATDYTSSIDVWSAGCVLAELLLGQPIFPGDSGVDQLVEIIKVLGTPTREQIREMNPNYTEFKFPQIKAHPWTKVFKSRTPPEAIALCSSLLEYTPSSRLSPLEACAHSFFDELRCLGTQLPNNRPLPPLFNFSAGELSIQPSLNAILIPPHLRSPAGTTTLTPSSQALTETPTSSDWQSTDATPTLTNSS

Compound | IC50 [1, 3] | IC50 [2] | IC50 [1, 4]
C#Cc1cc(Nc2nccc(Oc3ccc(NC(=O)Nc4cc(C(C)C)nn4-c4cccc(CP(C)(C)=O)c4)c4ccccc34)n2)cc(OCCN2CCOCC2)c1 [Example 56, 1-(1-(3-((Dimethylphosphoryl)methyl)phenyl)-3-isopropyl-1H-pyrazol-5-yl)-3-(4-((2-((3-ethynyl-5-(2-morpholinoethoxy)phenyl)amino)pyrimidin-4-yl)oxy)naphthalen-1-yl)urea] | 0.0017 µM | 0.788 µM | 
C#Cc1cc(Nc2nccc(Oc3ccc(NC(=O)Nc4cc(C(C)C)nn4-c4cccc(CP(C)(C)=O)c4)c4ccccc34)n2)cc(C(=O)NCCN2CCOCC2)c1 [Example 43, 3-((4-((4-(3-(1-(3-((Dimethylphosphoryl)methyl)phenyl)-3-isopropyl-1H-pyrazol-5-yl)ureido)naphthalen-1-yl)oxy)pyrimidin-2-yl)amino)-5-ethynyl-N-(2-morpholinoethyl)benzamide] | 0.0016 µM | 0.174 µM | 
CC(C)(C)c1cc(NC(=O)Nc2ccc(Oc3ccnc(Nc4cccc(OCCN5CCOCC5)c4)n3)c3ccccc23)n(-c2ccc(P(C)(C)=O)cc2)n1 [Example 17, 1-(3-(tert-Butyl)-1-(4-(dimethylphosphoryl)phenyl)-1H-pyrazol-5-yl)-3-(4-((2-((3-(2-morpholinoethoxy)phenyl)amino)pyrimidin-4-yl)oxy)naphthalen-1-yl)urea] | 0.0054 µM | 0.074 µM | 0.0018 µM
COc1cc(Nc2nccc(Oc3ccc(NC(=O)Nc4cc(C(C)C)nn4-c4cccc(CP(C)(C)=O)c4)c4ncccc34)n2)cc(OCCN2CCOCC2)c1 [Example 54, 1-(1-(3-((Dimethylphosphoryl)methyl)phenyl)-3-isopropyl-1H-pyrazol-5-yl)-3-(5-((2-((3-methoxy-5-(2-morpholinoethoxy)phenyl)amino)pyrimidin-4-yl)oxy)quinolin-8-yl)urea] | 0.0274 µM | > 10 µM | 
COc1cc(Nc2nccc(Oc3ccc(NC(=O)Nc4cc(C(C)(C)C)nn4-c4cccc(CP(C)(C)=O)c4)c4ccccc34)n2)cc(C(=O)NCCN2CCOCC2)c1 [Example 47, 3-((4-((4-(3-(3-(tert-Butyl)-1-(3-((dimethylphosphoryl)methyl)phenyl)-1H-pyrazol-5-yl)ureido)naphthalen-1-yl)oxy)pyrimidin-2-yl)amino)-5-methoxy-N-(2-morpholinoethyl)-benzamide] | 0.0008 µM | 0.406 µM | 
COc1cc(Nc2nccc(Oc3ccc(NC(=O)Nc4cc(C(C)C)nn4-c4cccc(CP(C)(C)=O)c4)c4ccccc34)n2)cc(S(=O)(=O)C2CC2)c1 [Example 46, 1-(4-((2-((3-(Cyclopropylsulfonyl)-5-methoxyphenyl)amino)pyrimidin-4-yl)oxy)naphthalen-1-yl)-3-(1-(3-((dimethylphosphoryl)methyl)phenyl)-3-isopropyl-1H-pyrazol-5-yl)urea] | 0.0059 µM | 1.59 µM | 
CC(C)(C)c1cc(NC(=O)Nc2ccc(Oc3ccnc(Nc4ccc(SCCO)cc4)n3)c3ccccc23)n(-c2ccc(P(C)(C)=O)cc2)n1 [Example 18, 1-(3-(tert-Butyl)-1-(4-(dimethylphosphoryl)phenyl)-1H-pyrazol-5-yl)-3-(4-((2-((4-((2-hydroxyethyl)thio)phenyl)amino)pyrimidin-4-yl)oxy)naphthalen-1-yl)urea] | 0.0072 µM | 0.168 µM | 0.0029 µM
CC(C)c1cc(NC(=O)Nc2ccc(Oc3ccnc(Nc4cc(OCCN5CCOCC5)cc(S(C)(=O)=O)c4)n3)c3ccccc23)n(-c2cccc(CP(C)(C)=O)c2)n1 [Example 53, 1-(1-(3-((Dimethylphosphoryl)methyl)phenyl)-3-isopropyl-1H-pyrazol-5-yl)-3-(4-((2-((3-(methylsulfonyl)-5-(2-morpholinoethoxy)phenyl)amino)pyrimidin-4-yl)oxy)naphthalen-1-yl)urea] | 0.002 µM | 0.188 µM | 
CC(C)(C)c1cc(NC(=O)Nc2ccc(Oc3ccnc(N4CCC[C@H]4CO)n3)c3ccccc23)n(-c2ccc(P(C)(C)=O)cc2)n1 [Example 26, (S)-1-(3-(tert-Butyl)-1-(4-(dimethylphosphoryl)phenyl)-1H-pyrazol-5-yl)-3-(4-((2-(2-(hydroxymethyl)pyrrolidin-1-yl)pyrimidin-4-yl)oxy)naphthalen-1-yl)urea] | 0.189 µM | 8.13 µM | 
CC(C)(C)c1cc(NC(=O)Nc2ccc(Oc3ccnc(Nc4ccc5[nH]ncc5c4)n3)c3ccccc23)n(-c2ccc(P(C)(C)=O)cc2)n1 [Example 7, 1-(4-((2-((1H-Indazol-5-yl)amino)pyrimidin-4-yl)oxy)naphthalen-1-yl)-3-(3-(tert-butyl)-1-(4-(dimethylphosphoryl)phenyl)-1H-pyrazol-5-yl)urea] | 0.0067 µM | 0.486 µM | 0.0025 µM
CC(C)(C)c1cc(NC(=O)Nc2ccc(Oc3ccnc(Nc4ccc5c(c4)NC(=O)C5)n3)c3ccccc23)n(-c2cccc(CP(C)(C)=O)c2)n1 [Example 33, 1-(3-(tert-Butyl)-1-(3-((dimethylphosphoryl)methyl)phenyl)-1H-pyrazol-5-yl)-3-(4-((2-((2-oxoindolin-6-yl)amino)pyrimidin-4-yl)oxy)naphthalen-1-yl)urea] | 0.0024 µM | 0.326 µM | 
CC(C)(C)c1cc(NC(=O)Nc2ccc(Oc3ccnc(Nc4ccc5onc(N)c5c4)n3)c3ccccc23)n(-c2ccc(P(C)(C)=O)cc2)n1 [Example 20, 1-(4-((2-((3-Aminobenzo[d]isoxazol-5-yl)amino)pyrimidin-4-yl)oxy)naphthalen-1-yl)-3-(3-(tert-butyl)-1-(4-(dimethylphosphoryl)phenyl)-1H-pyrazol-5-yl)urea] | 0.009 µM | 0.068 µM | 
CC(C)(C)c1cc(NC(=O)Nc2ccc(Oc3ccnc(Nc4cccc(OCCN5CCOCC5)c4)n3)c3ccccc23)n(-c2cccc(CP(C)(C)=O)c2)n1 [Example 34, 1-(3-(tert-Butyl)-1-(3-((dimethylphosphoryl)methyl)phenyl)-1H-pyrazol-5-yl)-3-(4-((2-((3-(2-morpholinoethoxy)phenyl)amino)pyrimidin-4-yl)oxy)naphthalen-1-yl)urea] | 0.0011 µM | 0.324 µM | 

From US9796742B2, “Kinase inhibitors” (Respivert Limited, priority 2012, dated 2017)
